Assay results taken from ChEMBL document CHEMBL1201862, “PubChem BioAssay data set” (2004).
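The compound was tested at five concentrations on cells cultured in 96-well plates, with a 48-hour exposure period. GI50 = concentration required for 50% inhibition of growth.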 Active and inactive are the calls of the source. Rule as the data show it: active = GI50 up to about 1.1 µM and inactive = higher.

Key:
Experiment in all cases: NCI anticancer screen, dose series, 48 h
M14 = test system: M14
NCI-H522 = test system: NCI-H522
CAKI-1 = test system: CAKI-1
K562 = test system: K562
A498 = test system: A498
OVCAR-4 = test system: OVCAR-4
NCI/ADR-RES = test system: NCI/ADR-RES
HOP-92 = test system: HOP-92
Malme-3M = test system: Malme-3M
NCI-H226 = test system: NCI-H226
NCI-H460 = test system: NCI-H460
ACHN = test system: ACHN
BT-549 = test system: BT-549
SF-268 = test system: SF-268
SF-295 = test system: SF-295
OVCAR-8 = test system: OVCAR-8
SN12C = test system: SN12C
SK-MEL-5 = test system: SK-MEL-5
HOP-62 = test system: HOP-62
OVCAR-3 = test system: OVCAR-3

Measured: GI50

CSC1=C(C)C(/C=N/Nc2ccc([N+](=O)[O-])cc2)=C(C)N(c2ccccc2)S1(=O)=O
inactive: M14 38.6 µM | NCI-H522 12.9 µM | CAKI-1 > 100 µM | K562 7.71 µM | A498 > 100 µM | OVCAR-4 > 100 µM | NCI/ADR-RES 6.49 µM | HOP-92 > 100 µM | Malme-3M 94.2 µM | NCI-H226 > 100 µM | NCI-H460 16.6 µM | ACHN 44.9 µM | BT-549 20.8 µM | SF-268 > 100 µM | SF-295 6.17 µM | OVCAR-8 17.3 µM | SN12C > 100 µM | SK-MEL-5 17.4 µM | HOP-62 > 100 µM | OVCAR-3 25.4 µM

O=[N+]([O-])c1cc(Cl)cc2cc(Cl)cnc12
inactive: M14 > 100 µM | NCI-H522 > 100 µM | CAKI-1 > 100 µM | K562 > 100 µM | A498 48 µM | OVCAR-4 35.7 µM | NCI/ADR-RES > 100 µM | HOP-92 > 100 µM | Malme-3M > 100 µM | NCI-H226 > 100 µM | NCI-H460 > 100 µM | ACHN > 100 µM | BT-549 > 100 µM | SF-268 > 100 µM | SF-295 > 100 µM | OVCAR-8 98.9 µM | SN12C > 100 µM | SK-MEL-5 62.5 µM | HOP-62 > 100 µM | OVCAR-3 > 100 µM
